Data on one compound can be found in BindingDB's records for patent US20240425453 (Neophore, 2024).

For the assay, the target named is T1, Mismatch repair endonuclease PMS2 (UniProt P54278).
T1 sequence (P54278 whole entry): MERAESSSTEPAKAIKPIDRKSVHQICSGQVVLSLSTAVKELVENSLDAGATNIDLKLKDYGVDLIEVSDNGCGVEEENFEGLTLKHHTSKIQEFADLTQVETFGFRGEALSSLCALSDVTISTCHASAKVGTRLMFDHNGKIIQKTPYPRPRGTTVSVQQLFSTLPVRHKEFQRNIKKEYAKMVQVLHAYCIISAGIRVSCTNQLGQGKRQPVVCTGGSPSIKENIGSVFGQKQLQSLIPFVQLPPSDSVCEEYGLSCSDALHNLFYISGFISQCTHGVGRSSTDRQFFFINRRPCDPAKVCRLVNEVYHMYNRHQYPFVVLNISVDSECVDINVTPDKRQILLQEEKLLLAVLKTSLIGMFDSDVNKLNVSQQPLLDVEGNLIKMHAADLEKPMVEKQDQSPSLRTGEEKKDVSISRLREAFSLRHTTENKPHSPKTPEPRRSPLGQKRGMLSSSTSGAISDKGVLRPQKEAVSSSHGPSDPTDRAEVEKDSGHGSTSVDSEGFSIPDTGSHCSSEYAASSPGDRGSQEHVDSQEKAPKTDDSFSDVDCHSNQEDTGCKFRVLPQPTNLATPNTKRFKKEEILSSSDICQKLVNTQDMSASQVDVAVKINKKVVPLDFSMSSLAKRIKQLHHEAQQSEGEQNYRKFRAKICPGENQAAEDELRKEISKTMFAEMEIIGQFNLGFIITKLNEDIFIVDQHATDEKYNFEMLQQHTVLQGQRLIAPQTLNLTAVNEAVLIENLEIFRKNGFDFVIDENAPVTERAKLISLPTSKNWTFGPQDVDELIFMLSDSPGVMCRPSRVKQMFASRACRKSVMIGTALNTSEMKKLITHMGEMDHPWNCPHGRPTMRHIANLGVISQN
Briefly: Fluorescence Polarization Assay for PMS2. In general terms: Fluorescence polarisation rises when a labelled molecule tumbles more slowly, as on binding a larger partner.

The structures appear in SMILES notation. Some results are limits rather than exact numbers.

In the case of `C=C(CN(C)C)C(=O)Nc1cccc2c1CN(C(=O)c1c(O)cc(O)c(C)c1OC)C2` [US20240425453, Example 36], the concentration for half-maximal inhibition (IC50) (commonly the concentration needed to halve the response being measured) is greater than 1000 nM.
